Assay results published in patent US12384751B2, “Allosteric activators of the ALPHA1A-adrenergic receptor” (The Cleveland Clinic Foundation, priority 2019, dated 2025).
“Also recorded” adds a separate entry of the source.

What was measured:
[1] = Mean arterial blood pressure in 3×TG AD mice; assay type: in vivo; details: 3×TG mice
Procedure: A 10 month continuous dose study was performed in the 3×TG Alzheimer's Disease (AD) mouse model containing the triple mutations (APP(swe), PS1(M146V), tau(P301L)) from Jackson labs. Synaptic dysfunction and LTP deficits manifests in an age-related manner beginning from 2-6 months that occurs prior to Aβ pathology (87, herein incorporated by reference). Hippocampal-dependent cognitive impairments begin at 4-6 months depending upon the strain (88-89, herein incorporated by reference). 3×Tg mice have documented cognitive deficits in the Morris water maze (88) and Barnes maze (9, 90). Deficits in long-term synaptic plasticity correlate with the accumulation of intraneuronal Aβ (88). 3×Tg have decreased neurogenesis in both SGZ and SVZ before Aβ pathology and treatments that increased neurogenesis improved memory in 3×TG mice (18-19, herein incorporated by reference).
(§1) AD mice were first randomized and sorted into control or treatment groups. […] 14 AD mice from each treatment group received Compound 3 in the drinking water (2.611 mg/kg/bw) to deliver a daily dose near the peak potentiation of the cAMP response in the brain at 10^−8M based upon the PAM assay and pharmacokinetics. This was achieved by adding Compound 3 to the drinking water at 32 uM, assuming the mice drink 6 ml/day, with only 10% of bioavailable drug reaching the brain. The drug was administered in the drinking water for 10 months, starting at age 2 months, then subjected to either different cognitive behavioral tests or electrophysiology at age 12 months to maximize the manifestations of AD symptoms in these mice. Mice are maintained on the drug for the duration of the studies and blinded to the operator.
At 12 months of age mice were subjected to long term potentiation (LTP) (FIG. 25).
Assessment: Blood pressure. […]

[2] = system: 3×TG Alzheimer's Disease (AD) mouse model; details: in vivo
Procedure: as §1

α1A-AR [3] = target: T1, α1A-AR (Homo sapiens, UniProt P35348); experiment: cAMP assay at α1A-AR; assay type: cell-based; design: expressed in transfected cells; host or cells: Rat-1 fibroblast cells
T1 sequence (P35348 1-466): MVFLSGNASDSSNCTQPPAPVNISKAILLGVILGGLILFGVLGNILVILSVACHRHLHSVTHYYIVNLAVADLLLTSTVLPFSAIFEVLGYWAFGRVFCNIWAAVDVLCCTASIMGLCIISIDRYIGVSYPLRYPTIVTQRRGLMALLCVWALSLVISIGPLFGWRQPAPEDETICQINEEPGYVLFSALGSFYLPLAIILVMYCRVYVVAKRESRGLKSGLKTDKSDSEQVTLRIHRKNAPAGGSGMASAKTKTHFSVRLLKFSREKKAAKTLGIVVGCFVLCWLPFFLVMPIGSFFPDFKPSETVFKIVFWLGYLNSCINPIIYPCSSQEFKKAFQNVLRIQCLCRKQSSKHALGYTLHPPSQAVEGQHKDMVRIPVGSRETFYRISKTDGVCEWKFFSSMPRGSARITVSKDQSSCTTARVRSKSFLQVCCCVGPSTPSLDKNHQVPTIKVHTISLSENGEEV
Procedure: cAMP assay: Cells expressing a single α1-adrenergic receptor subtype are washed and re-plated into 24-well plates in DMEM media without serum at approximately 2.4×10^4 cells/well. Cells are allowed to rest till the next day in a CO2 incubator at 37° C. The cells are washed twice with DMEM (no serum), then 1 ml of DMEM is added to each well. Cells are pre-incubated for 45 mins-1 hour at 37° C. in a CO2 incubator with 10 uM propranolol, followed by 100 uM IBMX for 30 minutes. Final DMSO concentration is at 0.05%. Norepinephrine or epinephrine is added in a dose response (1 dose per well) in addition to one of the Compounds 1-10 at one concentration (i.e. 10^−5M). Cells are incubated for another 30 mins at 37° C. in a CO2 incubator. The reaction is concluded by aspirating the media and adding 0.1M HCL. The mixture is incubated for 20 mins at room temperature. The cells are scraped and suspended until homogenous. The mixture is centrifuged at 1000 g for 10 mins and the supernatant assayed the same day according to a manufacturer's cAMP kit (Cayman Select Cyclic AMP EIA kit #501040).

α1A-AR [4] = target: T1, α1A-AR; experiment: Total inositol phosphate assay at α1A-AR; assay type: cell-based; design: expressed in transfected cells; host or cells: Rat-1 fibroblast cells
Procedure: Total Inositol Phosphate assay: Cells expressing a single α1-adrenergic receptor subtypes are washed and re-plated into 6-well plates containing DMEM media at approximately 5×10^5 cells/well. Cells are allowed to rest till the next day in a CO2 incubator at 37° C. The cells are washed twice with DMEM (no serum), then 2 ml of DMEM is added to each well. 2 ul of ^3H-inositol (at 1 uCi/mL, Perkin-Elmer NET 114 005MC) and 10 mM LiCl is added to each well. The cells are incubated for 1 hour at 37° C. in a CO2 incubator. […] The cells are incubated again for 1 hour at 37° C. in a CO2 incubator. The media is aspirated and 1 mL of ice-cold 0.4M perchloric acid is added. The cells are scraped, transferred to a vial, then 1 mL 0.72M KOH/0.6M KHCO3 is added, the tube vortexed and the contents centrifuged at 2000 rpm for 10 mins. The supernatant is removed and applied to BioRad polyprep columns packed with 1 mL of AG1-X8 resin (BioRad AG1-X8 resin 100-200 mesh #140-1444) in 0.1M formic acid in a holding tray which is over a plastic catch tray. The supernatant is allowed to naturally drip through the column then washed with 8 ml of 0.1M formic acid (2 ml at a time). The columns are transferred via the holding tray to a box of 20 ml scintillation vials so that the columns drip directly into the vials. Total inositol phosphates are eluted off the column with 2 ml of 0.1M formic acid/1M ammonium formate. The columns are eluted a second time into a new scintillation vial with another 2 ml of 0.1M formic acid/1M ammonium formate. 18 ml of Ecoscint A is added to each scintillation vial and vortexed. The vials are allowed to dark adapt overnight at room temperature to reduce autofluorescence. The vials are counted in a scintillation counter on the tritium channel and the cpms from the first and second fractions eluted off the columns are added together.

[5] = drinking water 2.611 mg/kg/bw, N=13-16

In the case of `CC(C)Cc1c(OCC2=NCCN2)cccc1N(C)S(C)(=O)=O` [Compound 3, N-[3-(4,5-Dihydro-1H-imidazol-2-ylmethoxy)-2-isobutyl-phenyl]-N-methyl-methanesulfonamide], the “blood pressure, treated vs untreated” value [1] is reported as “no significant differences; also recorded: does not affect blood pressure”, the “mean arterial blood pressure, treated females (F)” value [1, 5] is reported as 85±2.4 and the “mean arterial blood pressure, treated males (M)” value [1, 5] is reported as 97±3. The “death rates between groups” value [2] was “no differences in the death rates”, the “PAM activity / PAM type” value (α1A-AR [3]) was “Type I PAM” and the “dose at which potentiation of norepinephrine cAMP response is maximal” value (α1A-AR [3]) was 10^−8 M. For the same compound, the “effect on epinephrine-mediated cAMP response at the α1A-AR” value (α1A-AR [3]; 10^−5M to 10^−7M of compound) was “no effect”, the “effect on norepinephrine-mediated cAMP response at the α1A-AR” value (α1A-AR [3]; 10^−5M to 10^−9M of compound) was “potentiates” and the “stimulation of cAMP by the compound by itself” value (α1A-AR [3]; compound alone) was “cannot stimulate”. For the same compound, the “potentiation of the cAMP response of norepinephrine” value (α1A-AR [3]; dose-response of compound) was 50%, the “effect on epinephrine-mediated inositol phosphate response at the α1A-AR” value (α1A-AR [4]) was “no effect” and the “effect on norepinephrine-mediated inositol phosphate response at the α1A-AR” value (α1A-AR [4]) was “does not have any effect; also recorded: no effect”. The “stimulation of inositol phosphate / agonist activity by the compound by itself” value (α1A-AR [4]; compound alone) was “cannot stimulate”.
